For assay [1], the target named is T1, SARS-CoV-2 PLpro (nsp3 1564–1878) (Severe acute respiratory syndrome coronavirus 2, UniProt P0DTD1). The assay is described as follows: biochemical. Also on record: FRET-quenched peptide (Pro3) cleavage by PLpro, 10 min pre-incubation, slope over 20 min, normalised to no-compound control. To be noted: high concentration screen, read-out: % of control remaining.

Assay [2] concerns the target T1, SARS-CoV-2 PLpro (nsp3 1564–1878). As to the kind of experiment: biochemical. Conditions: low concentration screen, read-out: % of control remaining. Also on record: FRET-quenched peptide (Pro3) cleavage by PLpro, 10 min pre-incubation, slope over 20 min, normalised to no-compound control.

The results in this text go back to article PMC8286840, “Identifying SARS-CoV-2 antiviral compounds by screening for small molecule inhibitors of Nsp3 papain-like protease” (Biochemical Journal, 2021).

Where a name gives a salt, the structure may show the parent alone. Read-outs that look alike come from different tables or passages of the source.

Regarding `CC[C@@H](N)C(=O)O` [D(-)-2-Aminobutyric acid], the remaining activity at 3.75 µM in assay [1] (Well no.=7701) came out at 92.5%. Further, the remaining activity at 1.25 µM in assay [2] (Well no.=7701) was 97.2%.

On to `C[C@@H](N)C(=O)O` [D-Alanine], for which, in assay [1] (Well no.=7693), the remaining activity at 3.75 µM came to 105%. For the same molecule, the remaining activity at 1.25 µM in assay [2] (Well no.=7693) was found to be 107%.

As to `OC[C@@H](O)C(O)[C@H](O)CO` [D-Arabitol], the remaining activity at 3.75 µM in assay [1] (Well no.=6501) worked out at 93.2%. Besides, the remaining activity at 1.25 µM in assay [2] (Well no.=6501) came to 92.6%.

Regarding `N[C@@H]1CONC1=O` [D-Cycloserine], in assay [1] (Well no.=78), the remaining activity at 3.75 µM was 102%. The remaining activity at 1.25 µM in assay [2] (Well no.=78) is 100%.

`O=C[C@H](O)[C@@H](O)[C@@H](O)[C@H](O)CO` [D-Galactose]: the remaining activity at 3.75 µM in assay [1] (Well no.=6871) was found to be 96.9%. Besides, in assay [2] (Well no.=6871), the remaining activity at 1.25 µM turned out to be 103%.

In the case of `O=C[C@H](O)[C@@H](O)[C@H](O)[C@H](O)COP(=O)(O)O` [D-Glucose 6-Phosphate], the remaining activity at 3.75 µM in assay [1] (Well no.=7263) turned out to be 98.1%. Besides, the remaining activity at 1.25 µM in assay [2] (Well no.=7263) turned out to be 98.2%.

On to `OC[C@@H](O)[C@@H](O)[C@H](O)[C@H](O)CO` [D-Mannitol], for which the remaining activity at 3.75 µM was 96.4% in assay [1] (Well no.=6397) and 96.1% in assay [1] (Well no.=8434). Moreover, the remaining activity at 1.25 µM was 104% in assay [2] (Well no.=6397) and 96.7% in assay [2] (Well no.=8434).

In the case of `OC[C@H]1OC(O)[C@@H](O)[C@@H](O)[C@@H]1O` (stereo partly drawn) [D-Mannose], the remaining activity at 3.75 µM in assay [1] (Well no.=7407) turned out to be 102%. Also, the remaining activity at 1.25 µM in assay [2] (Well no.=7407) was 103%.

`N[C@H](CO)C(=O)O` [D-Serine]: the remaining activity at 3.75 µM in assay [1] (Well no.=1362) worked out at 93.5%. The remaining activity at 1.25 µM in assay [2] (Well no.=1362) was determined as 92.8%.

Take `OC[C@@H](O)[C@@H](O)[C@H](O)[C@@H](O)CO` [D-Sorbitol]: the remaining activity at 3.75 µM in assay [1] (Well no.=6253) turned out to be 112%. Besides, the remaining activity at 1.25 µM in assay [2] (Well no.=6253) was determined as 115%.

As for `CCCCCCCCCCCCCC(=O)N[C@H](C)[C@@H](O)c1ccccc1` [D-erythro MAPP], the remaining activity at 3.75 µM in assay [1] (Well no.=4257) turned out to be 98.9%. Moreover, the remaining activity at 1.25 µM in assay [2] (Well no.=4257) is 105%.

Turning to `CCCCCCCCCCCCC/C=C/[C@@H](O)[C@@H](N)CO` [D-erythro-Sphingosine], the remaining activity at 3.75 µM in assay [1] (Well no.=7207) is 96.9%. Further, the remaining activity at 1.25 µM in assay [2] (Well no.=7207) turned out to be 100%.

For the molecule `NC(=O)CC[C@@H](N)C(=O)O` [D-glutamine], the remaining activity at 3.75 µM in assay [1] (Well no.=4996) is 99.6%. The remaining activity at 1.25 µM in assay [2] (Well no.=4996) was 98.2%.

Turning to `Nc1cccc(S(=O)(=O)N2CCCN(S(=O)(=O)c3ccc4c(c3)OCCO4)CC2)c1` [DASA-58], the remaining activity at 3.75 µM in assay [1] (Well no.=8818) was determined as 96.9%. Also, the remaining activity at 1.25 µM in assay [2] (Well no.=8818) was determined as 95.3%.

For `Clc1ccc(N2C[C@H]3CC[C@@H](C2)N3)nn1` [DBO-83], the remaining activity at 3.75 µM in assay [1] (Well no.=630) worked out at 98.1%. Moreover, in assay [2] (Well no.=630), the remaining activity at 1.25 µM turned out to be 63.4%.

As for `CCCCc1ccc(NS(=O)(=O)c2ccc(F)cc2)cc1` [DC260126], the remaining activity at 3.75 µM in assay [1] (Well no.=6272) was determined as 94.3%. Further, the remaining activity at 1.25 µM in assay [2] (Well no.=6272) was 94.7%.

In the case of `CCn1c(=O)[nH]c2cc(Cl)c(Cl)cc21` [DCEBIO], in assay [1] (Well no.=538), the remaining activity at 3.75 µM turned out to be 104%. In addition, in assay [2] (Well no.=538), the remaining activity at 1.25 µM amounted to 102%.

On to `CCC(=O)N1CCN(C(=O)c2ccccc2)CC1` [DM 235], for which the remaining activity at 3.75 µM in assay [1] (Well no.=453) came out at 96%. Further, the remaining activity at 1.25 µM in assay [2] (Well no.=453) worked out at 96.3%.

With `COc1cc(OC)c2cc(-c3ccncc3)cnc2c1` [DMPQ dihydrochloride], the remaining activity at 3.75 µM in assay [1] (Well no.=5933) came to 98.1%. Moreover, in assay [2] (Well no.=5933), the remaining activity at 1.25 µM stood at 100%.

With `CC(=O)c1ccc(N2CCOCC2)cc1O` [DNA-PK Inhibitor III], the remaining activity at 3.75 µM in assay [1] (Well no.=2365) turned out to be 105%. Besides, the remaining activity at 1.25 µM in assay [2] (Well no.=2365) is 104%.

As for `O=C(c1ccccc1)c1ccc(N2CCOCC2)cc1O` [DNA-PK Inhibitor V], the remaining activity at 3.75 µM in assay [1] (Well no.=2657) was found to be 101%. In addition, in assay [2] (Well no.=2657), the remaining activity at 1.25 µM came out at 95.5%.

With `Cc1nc2c(c(=O)[nH]1)CSCC2` [DR2313], the remaining activity at 3.75 µM in assay [1] (Well no.=5778) was determined as 96.7%. Also, the remaining activity at 1.25 µM in assay [2] (Well no.=5778) stood at 96.1%.

Consider `c1ccc2c(c1)N=C(N1CCNCC1)c1ccccc1N2` [DREADD agonist 21], for which the remaining activity at 3.75 µM in assay [1] (Well no.=6943) was 100%. Further, the remaining activity at 1.25 µM in assay [2] (Well no.=6943) was 96.4%.

Turning to `CCN(CCCl)Cc1ccccc1Br` [DSP-4 hydrochloride], in assay [1] (Well no.=284), the remaining activity at 3.75 µM was found to be 98%. The remaining activity at 1.25 µM in assay [2] (Well no.=284) turned out to be 98.1%.

`CCCCCCOC(=O)NC(=N)c1ccc(NCc2nc3cc(C(=O)N(CCC(=O)OCC)c4ccccn4)ccc3n2C)cc1` [Dabigatran Etexilate]: the remaining activity at 3.75 µM in assay [1] (Well no.=8192) was 82.3%. In addition, in assay [2] (Well no.=8192), the remaining activity at 1.25 µM was 95.6%.

Regarding `CN(C)/N=N/c1[nH]cnc1C(N)=O` [Dacarbazine], the remaining activity at 3.75 µM in assay [1] (Well no.=1940) was 99.4%. The remaining activity at 1.25 µM in assay [2] (Well no.=1940) is 103%.

Regarding `COc1cc2ncnc(Nc3ccc(F)c(Cl)c3)c2cc1NC(=O)/C=C/CN1CCCCC1` [Dacomitinib (PF299804,PF-00299804)], the remaining activity at 3.75 µM in assay [1] (Well no.=5027) came out at 95.4%. Also, in assay [2] (Well no.=5027), the remaining activity at 1.25 µM was found to be 94.2%.

For `O=c1c(-c2ccc(O)cc2)coc2cc(O)ccc12` [Daidzein], the remaining activity at 3.75 µM in assay [1] (Well no.=438) was determined as 99.2%; in assay [1] (Well no.=3219) it was 104%. In addition, the remaining activity at 1.25 µM in assay [2] (Well no.=438) turned out to be 102%; in assay [2] (Well no.=3219), 103%.

Turning to `O=c1c(-c2ccc(O)cc2)coc2cc(O[C@@H]3O[C@H](CO)[C@@H](O)[C@H](O)[C@H]3O)ccc12` [Daidzin], the remaining activity at 3.75 µM in assay [1] (Well no.=3249) worked out at 102%. The remaining activity at 1.25 µM in assay [2] (Well no.=3249) is 103%.

`CCC(CC)CC1(C(=O)Nc2ccccc2SC(=O)C(C)C)CCCCC1` [Dalcetrapib (JTT-705, RO4607381)]: the remaining activity at 3.75 µM in assay [1] (Well no.=8198) was 102%. In addition, the remaining activity at 1.25 µM in assay [2] (Well no.=8198) was 102%.

With `CCN(CC)CCS(=O)(=O)[C@@H]1CCN2C(=O)c3coc(n3)CC(=O)C[C@H](O)/C=C(C)/C=C/CNC(=O)/C=C/[C@@H](C)[C@@H](C(C)C)OC(=O)[C@@H]12` [Dalfopristin], the remaining activity at 3.75 µM in assay [1] (Well no.=7876) was found to be 93.8%. Also, in assay [2] (Well no.=7876), the remaining activity at 1.25 µM was 95%.

For the molecule `C#C[C@]1(O)CC[C@H]2[C@@H]3CCC4=Cc5oncc5C[C@]4(C)[C@H]3CC[C@@]21C` [Danazol], the remaining activity at 3.75 µM in assay [1] (Well no.=584) stood at 97%; in assay [1] (Well no.=1942), 106%. Moreover, the remaining activity at 1.25 µM came to 94.6% in assay [2] (Well no.=584) and 105% in assay [2] (Well no.=1942).

For `NCC(=O)N1C[C@H](NC(=O)c2ccccc2)C[C@H]1C(=O)O` [Danegaptide Hydrochloride], the remaining activity at 3.75 µM in assay [1] (Well no.=8026) stood at 100%. Moreover, the remaining activity at 1.25 µM in assay [2] (Well no.=8026) was determined as 98.8%.
